# What was measured:
# PLC-δ PH domain = PLC-δ PH domain (Homo sapiens (Human), UniProt P51178); assay: PH domain translocation assay (GFP fusion); format: cell-based
# Procedure: Cells were transfected with the corresponding GFP-fusion vectors, serum starved overnight, and incubated with 100 μM PITs or PIT-1 is for 2 hr, followed by stimulation with 100 ng/ml PDGF or 250 ng/ml PMA for 5 min. The translocation was analyzed using fluorescent microscope and was quantitated by counting the number of cells with translocated PH domains in five random fields.
# U87MG cells = assay: Sensitization of U87MG cells to TRAIL, ATP assay; format: cell-based, human; conditions: 10 ng/ml TRAIL, 48 hr
# Procedure: FIG. 10 is a bar graph depicting that PITs, as well as Akt inhibitor VIII, sensitize U87MG cells to killing by TRAIL. U87MG cells were incubated with 50 μM PIT-1, PIT-2, PIT-1i-1 or 10 μM Akt inhibitor VIII in the presence or absence of 10 ng/ml TRAIL for 48 hr, followed by cell viability analysis using ATP assay.
# Upregulation of PI3K/Akt signaling is an important mechanism of chemoresistance of cancer cells. Blume-Jensen P et al. (2001) Nature 411:355-65; Osaki M et al. (2004) Apoptosis 9:667-76. […] Puduvalli V K et al. (2005) Apoptosis 10:233-43 TRAIL represents a particularly promising anti-cancer agent due to its intrinsic selectivity towards cancer cells which is associated with the expression of the decoy receptors by many (but not all) normal cells. Abe K et al. (2000) Ann NY Acad Sci 926:52-63. […] Oka N et al. (2005) Cancer Res 65:7546-53.
# [1] = target: PH domain of Akt (His6-Akt123) (Homo sapiens (Human), UniProt P31749); assay: NMR 2D HSQC binding analysis
# Procedure: To further characterize the mode of action of PIT-1, NMR-based analyses of PIT-1 binding to the PH domain of Akt were performed. […] PIT-1 was further titrated to identify residues primarily affected by the small molecule binding. Using published Akt2 HSQC peak assignments (Auguin D et al. (2004) J Biomol NMR 28:137-55), it was observed that the residues Trp22 (W22), Tyr26 (Y26), and Asn54 (N54), located in the PIP3 binding pocket of the Akt PH domain, are primarily affected by PIT-1. Changes in other crosspeak signals were observed only at the 2× access of PIT-1.
# Bcl-xL = Bcl-xL (Homo sapiens (Human), UniProt Q07817); assay: NMR HSQC specificity control; format: binding
# [2] = Cell death under glucose/glutamine deprivation; format: cell-based
# apoptosis = assay: Apoptosis features: subG1 DNA content, Western blot of caspase-3 and PARP; format: cell-based
# Description: Since PI3K/PIP3/Akt signaling plays a critical role in the inhibition of apoptosis (Datta S R et al. (1999) Genes Dev 13:2905-27), the possibility that PITs induce apoptosis was examined. […] Proapoptotic Bcl-2 family members Bax and Bak are important mediators of apoptosis. Wei M C et al. (2001) Science 292:727-30. […] Non-apoptotic mechanisms of cell death may also play some additional, albeit less important, role in PIT-induced killing, as some cell death was still observed in Bax/Bak-deficient cells and in the presence of zVAD.fmk.
# [3] = test system: Bax/Bak double knockout cells; assay: Cell killing in Bax/Bak double knockout versus wild-type cells; format: cell-based, mouse
# Procedure: Human and mouse cancer cell lines (U87MG, SUM159, A549, MDA-MB-231, 4T1, B16-F10) and human umbilical vein endothelial cells (HUVEC) were purchased from the American Type Culture Collection (Rockville, Md., USA). Mouse adult lung fibroblasts (Akt-deficient and Akt1-expressing) were a generous gift of Dr. Philip Tsichlis (Tufts University). Maroulakou I et al. (2007) Cancer Res 67:167-77. Bax/Bak double knockout mouse embryonic fibroblasts (Wei M C et al. (2001) Science 292:727-30) and matched wild-type cells were a generous gift of Dr. Stanley Korsmeyer (Dana-Farber Cancer Center). B16-F10, U87MG, 4T1, A549, MDA-MB-231 and fibroblast cells were cultured in DMEM medium with 10% fetal bovine serum (FBS). SUM159 was maintained in Ham's F-12 medium with 5% FBS, 5 μg/ml insulin, and 1 μg/ml hydrocortisone. HUVEC cells were cultured in M199 medium with 20% FBS, 20 μg/ml ECGS, and 50 μg/ml heparin. All media were supplemented with 100 units/ml penicillin, 100 μg/ml streptomycin, and 2 mM glutamine. All cells were cultured in a humidified atmosphere of 95% air and 5% CO2 at 37° C.
# Since PI3K/PIP3/Akt signaling plays a critical role in the inhibition of apoptosis (Datta S R et al. (1999) Genes Dev 13:2905-27), the possibility that PITs induce apoptosis was examined. […] Proapoptotic Bcl-2 family members Bax and Bak are important mediators of apoptosis. Wei M C et al. (2001) Science 292:727-30. […]
# SUM159 cells = assay: Actin polymerization and ruffling/lamellipodia formation after PDGF; format: cell-based, human; conditions: SUM159, concentration-dependent
# Procedure: In one set of experiments, the ability of PITs to inhibit actin polymerization and ruffling/lamellipodia formation was examined in SUM159 cells. Cells were serum starved and treated with PITs (25, 50 100 μM) or PIT-1 is (100 μM) for 8 hr, followed by PDGF (100 ng/ml) stimulation for 15 min. Cells were fixed and stained with TRITC-phalloidin to visualize actin fibers, followed by fluorescent microscopy analysis. The number of cells with ruffles/lamellipodia was counted in five random fields.
# [4] = target: R86A mutant of the PH domain (Homo sapiens (Human), UniProt P31749, R86A); assay: NMR HSQC binding analysis, mutant PH domain
# [5] = test system: PI3K/PDK1/Akt signaling pathway; assay: PIP3-dependent phosphorylation events in HUVEC, Western blotting; format: cell-based, human; conditions: 50, 100 and 200 μM, 2 hr, bFGF
# Procedure: Endothelial cell migration plays a central role in tumor angiogenesis. Avraamides C J et al. (2008) Nat Rev Cancer 8:604-17. […] First, human umbilical vein endothelial cells (HUVEC) cells were serum starved overnight, and treated with different concentrations of PIT-1 (50, 100 and 200 μM) for 2 hr, followed by stimulation with 10 ng/ml bFGF for 15 min, and the PIP3-dependent phosphorylation events were evaluated by Western blotting.
# cancer cells = assay: Cancer cell invasion through matrigel; format: cell-based
# Description: Simpson K J et al. (2004) Cancer Res 64:8694-701.
# Sequence of Bcl-xL (Q07817 whole entry, species assumed): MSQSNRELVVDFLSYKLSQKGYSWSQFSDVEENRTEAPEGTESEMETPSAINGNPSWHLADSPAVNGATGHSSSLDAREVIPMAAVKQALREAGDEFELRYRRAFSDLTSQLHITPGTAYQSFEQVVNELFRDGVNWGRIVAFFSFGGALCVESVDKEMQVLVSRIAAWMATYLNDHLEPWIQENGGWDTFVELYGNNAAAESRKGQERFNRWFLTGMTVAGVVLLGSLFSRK
# Sequence of PH domain of Akt (His6-Akt123) (P31749 1-123): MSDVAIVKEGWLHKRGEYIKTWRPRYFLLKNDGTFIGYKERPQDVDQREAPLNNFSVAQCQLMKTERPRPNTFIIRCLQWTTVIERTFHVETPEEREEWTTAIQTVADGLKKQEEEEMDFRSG
# Sequence of R86A mutant of the PH domain (P31749 1-123 R86A): as the sequence (P31749 1-123) above, with R86A counted along it
# Sequence of PLC-δ PH domain (P51178 21-130): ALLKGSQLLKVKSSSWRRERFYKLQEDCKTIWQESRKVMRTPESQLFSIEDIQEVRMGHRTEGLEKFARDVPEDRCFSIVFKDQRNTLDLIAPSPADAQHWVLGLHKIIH
structure (smiles),measurement,setting,value
O=C(NC(=S)Nc1cc([N+](=O)[O-])cc(Cl)c1O)c1ccccc1 [PIT-1],cellular localization of PLC-δ PH domain,PLC-δ PH domain,no inhibitory effect
same,sensitization of U87MG cells to killing by TRAIL,U87MG cells,substantially sensitized U87MG cells to killing by TRAIL
same,changes in 2D HSQC 1H-15N correlation spectrum of His6-Akt123,[1],induces significant changes
same,changes in HSQC spectra of Bcl-xL,Bcl-xL,did not elicit any changes
same,cell death in combination with glucose/glutamine deprivation,[2],dramatic induction of cell death
same,subG1 DNA content in cells,apoptosis; P<0.01,significant increase in subG1 DNA content
same,cleavage/activation of caspase-3 and processing of PARP,apoptosis; Western blot,induced the cleavage/activation
same,killing of Bax/Bak double knockout compared with wild-type cells,[3],reduced in Bax/Bak double knockout cells
same,PDGF-induced membrane ruffling,SUM159 cells,efficiently inhibited
same,effect on R86A mutant PH domain (HSQC),[4],no effect
same,PI3K/PDK1/Akt signaling in HUVEC,[5],capable of blocking PI3K/PDK1/Akt signaling pathway
same,cancer cell invasion through matrigel,cancer cells,efficiently suppressed cancer cell invasion through matrigel
same,cytotoxic effects at concentrations used in migration and invasion experiments,cancer cells; P>0.05,no significant cytotoxic effects
same,acquisition of invasive phenotype by SUM-159 cells,cancer cells; reversible,blocked acquisition of the invasive phenotype

# Reference: US8628961B2, “Small molecule antagonists of phosphatidylinositol-3,4,5-triphosphate (PIP3) and uses thereof” (Tufts University, priority 2010, dated 2014)
